Usually Ki stands for a measure of affinity in units of concentration, obtained from inhibition or displacement. By IC50 is commonly meant the concentration needed to halve the response being measured. Higher therefore signals weaker potency.

Each structure is given as a SMILES string.

Ki and IC50 data for ten compounds are collected here from patent US20240217967A1, “INDOLINE DERIVATIVES AS DDRS INHIBITORS” (CHIESI FARMACEUTICI S.P.A., priority 2021, published 2024).

Assay [1] has as its target T1, DDR1 (Homo sapiens, UniProt Q08345). Briefly: DDR1 LanthaScreen Europium Kinase Binding assay. As to conditions: binding affinity; IC50 converted in Ki using Cheng-Prusoff; read-out: Ki DDR1. The method, then:
(§1) DDR1 and DDR2 binding assays were performed using Life Technologies LanthaScreen™ Europium Kinase Binding assay. The compounds were incubated with 5 nM DDR1 (Carna Biosciences) or 5 nM DDR2 (Life Technologies) for 1 hour at room temperature in white 384-well OptiPlate (PerkinElmer), containing 20 nM or 10 nM Kinase Tracer 178 respectively and 2 nM Europium labelled anti-GST antibody (Life Technologies) in assay buffer (50 mM HEPES pH 7.5, 10 mM MgCI2, 1 mM EGTA and 0.01% BRIJ35). The ratio of fluorescence emission 665 nm/615 nm after excitation at 340 nm was obtained using the Tecan Spark 20M plate reader. IC50 values were determined in GraphPad Prism 7.0 software, using 4 parameter model: log(inhibitor) vs. response. IC50 values were converted in Ki using the Cheng-Prusoff equation (Ki=IC50/(1+[Tracer]/Kd).
For orientation: TR-FRET usually uses a lanthanide donor and a delayed reading to cut background.

The next assay has as its target T2, DDR2 (Homo sapiens, UniProt Q16832).
T2 sequence (Q16832 22-855): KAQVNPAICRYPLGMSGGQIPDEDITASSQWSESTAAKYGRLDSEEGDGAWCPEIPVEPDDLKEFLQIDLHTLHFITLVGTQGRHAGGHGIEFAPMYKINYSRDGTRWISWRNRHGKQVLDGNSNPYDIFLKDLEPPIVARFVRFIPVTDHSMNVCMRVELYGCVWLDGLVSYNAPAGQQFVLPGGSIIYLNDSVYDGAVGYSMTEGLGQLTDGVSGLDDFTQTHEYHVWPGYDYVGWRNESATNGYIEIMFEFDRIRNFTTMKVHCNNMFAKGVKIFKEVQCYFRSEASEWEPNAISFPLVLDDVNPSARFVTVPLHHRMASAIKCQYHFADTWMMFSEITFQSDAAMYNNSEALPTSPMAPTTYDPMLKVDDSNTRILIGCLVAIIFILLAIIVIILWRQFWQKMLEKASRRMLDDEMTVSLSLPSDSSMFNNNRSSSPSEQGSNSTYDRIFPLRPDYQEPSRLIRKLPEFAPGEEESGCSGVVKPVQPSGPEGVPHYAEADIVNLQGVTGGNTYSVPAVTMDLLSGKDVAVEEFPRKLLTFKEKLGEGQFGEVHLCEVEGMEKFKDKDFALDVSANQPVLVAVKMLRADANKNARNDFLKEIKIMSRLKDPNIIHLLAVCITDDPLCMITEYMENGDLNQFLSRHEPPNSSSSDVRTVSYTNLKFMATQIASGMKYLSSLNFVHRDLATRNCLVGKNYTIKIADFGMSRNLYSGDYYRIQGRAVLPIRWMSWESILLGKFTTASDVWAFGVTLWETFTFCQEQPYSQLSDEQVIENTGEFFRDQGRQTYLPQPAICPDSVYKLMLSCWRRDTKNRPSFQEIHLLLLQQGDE
Briefly: DDR2 LanthaScreen Europium Kinase Binding assay. As to conditions: binding affinity; IC50 converted in Ki using Cheng-Prusoff; read-out: Ki DDR2. The method, then: as §1

For assay [2], the target named is T1, DDR1. Description: DDR1 cell based assay (PathHunter U2OS DDR1, collagen II stimulation). As to conditions: U2OS-DDR1 cells, bovine Type II Collagen stimulation. The method, then:
The inhibition of DDR1 receptor activation by compounds was evaluated by PathHunter® U2OS DDR1 assay (Eurofins DiscoverX), according to the manufacturer's instructions. Briefly, U2OS-DDR1 cells were seeded in white 384-well plates at a density of 5000 cells/well and incubated for 2 hours at 37° C. and 5% CO2. Cells were then treated with compounds at different concentrations and incubated for 30 minutes, before stimulation with bovine Type II Collagen 20 μg/ml and incubation overnight at 37° C. and 5% CO2. PathHunter Detection Reagents were prepared according to the protocol provided by DiscoverX and 20 μl/well of this mix were added to each well. After incubating the plates for 1 hour at room temperature in the dark, luminescence signal was acquired with a plate reader. Raw data were normalized to vehicle control (0% for normalization) and positive control (100% for normalization; cells treated with 20 μg/ml collagen II) and IC50 parameters were calculated in GraphPad Prism 8.0 software, using sigmoidal dose-response curve fitting with variable slope.

T1 sequence (Q08345 19-913): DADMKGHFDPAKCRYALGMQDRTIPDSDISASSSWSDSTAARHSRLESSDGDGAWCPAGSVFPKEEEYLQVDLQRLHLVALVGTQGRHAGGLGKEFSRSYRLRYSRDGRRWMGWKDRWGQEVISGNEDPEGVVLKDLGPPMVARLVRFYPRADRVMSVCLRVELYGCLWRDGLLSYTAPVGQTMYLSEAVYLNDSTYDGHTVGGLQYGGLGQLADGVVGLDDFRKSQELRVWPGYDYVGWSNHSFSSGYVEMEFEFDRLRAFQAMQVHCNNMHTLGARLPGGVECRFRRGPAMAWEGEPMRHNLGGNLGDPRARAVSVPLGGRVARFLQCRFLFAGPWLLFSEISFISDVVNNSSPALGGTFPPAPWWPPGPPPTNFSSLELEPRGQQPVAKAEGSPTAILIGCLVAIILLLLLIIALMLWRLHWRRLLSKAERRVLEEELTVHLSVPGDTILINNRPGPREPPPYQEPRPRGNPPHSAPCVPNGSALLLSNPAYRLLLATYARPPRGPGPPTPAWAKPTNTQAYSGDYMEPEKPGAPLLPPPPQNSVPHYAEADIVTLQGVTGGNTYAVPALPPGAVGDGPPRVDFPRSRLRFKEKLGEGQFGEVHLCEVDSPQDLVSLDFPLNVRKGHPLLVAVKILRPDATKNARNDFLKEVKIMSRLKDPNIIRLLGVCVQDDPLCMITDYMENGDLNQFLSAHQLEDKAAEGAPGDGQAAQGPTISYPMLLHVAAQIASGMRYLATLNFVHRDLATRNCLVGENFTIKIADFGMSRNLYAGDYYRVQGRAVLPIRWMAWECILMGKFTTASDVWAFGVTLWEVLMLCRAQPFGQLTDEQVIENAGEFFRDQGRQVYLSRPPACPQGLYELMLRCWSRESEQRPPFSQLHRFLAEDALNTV

For `CC1CN(Cc2cnc3[nH]ncc3c2)c2cc(C(=O)Nc3cncc(C(F)(F)F)c3)ccc21` (stereo not drawn) [Example 91, 1-((1H-pyrazolo[3,4-b]pyridin-5-yl)methyl)-3-methyl-N-(5-(trifluoromethyl)pyridin-3-yl)indoline-6-carboxamide], the Ki on DDR1 [1] and on DDR2 was < 25 nM in each case. Also, on DDR1 [2], the IC50 was < 25 nM.

As for `CN1CCN(Cc2ccc(NC(=O)c3ccc4c(c3)N(Cc3cnn5ccncc35)CC4)cc2C(F)(F)F)CC1` [Example 86, N-(4-((4-methylpiperazin-1-yl)methyl)-3-(trifluoromethyl)phenyl)-1-(pyrazolo[1,5-a]pyrazin-3-ylmethyl)indoline-6-carboxamide], the Ki on DDR1 [1] and at DDR2 was < 25 nM each time. In addition, the IC50 at DDR1 [2] was in the range of 25 to 50 nM.

As to `O=C(Nc1cccc(OC(F)(F)F)c1)c1ccc2c(c1)N(Cc1ccc3[nH]cnc3c1)CC2` [Example 61, 1-((1H-benzo[d]imidazol-5-yl)methyl)-N-(3-(trifluoromethoxy)phenyl)indoline-6-carboxamide], the Ki on DDR1 [1] and at DDR2 was 25 to 50 nM throughout. Moreover, the IC50 against DDR1 [2] was in the range of 50 to 80 nM.

As to `O=C(Nc1cc(F)cc(OC(F)(F)F)c1)c1ccc2c(c1)N(Cc1cnc3ccccn13)CC2` [Example 56, N-(3-fluoro-5-(trifluoromethoxy)phenyl)-1-(imidazo[1,2-a]pyridin-3-ylmethyl)indoline-6-carboxamide], the Ki at DDR1 [1] and at DDR2 was < 25 nM in each case. The IC50 against DDR1 [2] lay in the range of 25 to 50 nM.

On to `CN1CCN(Cc2cc(NC(=O)c3ccc4c(c3)N(Cc3cnc5cnccn35)CC4)cc(C(F)(F)F)c2)CC1` [Example 10, 1-(imidazo[1,2-a]pyrazin-3-ylmethyl)-N-(3-((4-methylpiperazin-1-yl)methyl)-5-(trifluoromethyl)phenyl)indoline-6-carboxamide], for which the Ki at DDR1 [1] and on DDR2 was < 25 nM each time. The compound further yielded an IC50 against DDR1 [2] of 25 to 50 nM.

As to `CC(C)(c1cc(NC(=O)c2ccc3c(c2)N(Cc2cnc4cnccn24)CC3)no1)C(F)(F)F` [Example 45, 1-(imidazo[1,2-a]pyrazin-3-ylmethyl)-N-(5-(1,1,1-trifluoro-2-methylpropan-2-yl)isoxazol-3-yl)indoline-6-carboxamide], the Ki on DDR1 [1] and on DDR2 was < 25 nM throughout. This compound also showed an IC50 against DDR1 [2] of 25 to 50 nM.

With `O=C(Nc1cccc(OC(F)(F)F)c1)c1ccc2c(c1)N(Cc1cnc3cnccn13)CC2` [Example 43, 1-(imidazo[1,2-a]pyrazin-3-ylmethyl)-N-(3-(trifluoromethoxy)phenyl)indoline-6-carboxamide], the Ki on DDR1 [1] and on DDR2 was < 25 nM throughout. The IC50 against DDR1 [2] is 25 to 50 nM.

Take `CCC1CN(Cc2cnc3cnccn23)c2cc(C(=O)Nc3cc(-n4cnc(C)c4)cc(C(F)(F)F)c3)ccc21` (single isomer, unassigned) [Example 64, 3-ethyl-1-(imidazo[1,2-a]pyrazin-3-ylmethyl)-N-(3-(4-methyl-1H-imidazol-1-yl)-5-(trifluoromethyl)phenyl)indoline-6-carboxamide]: the Ki on DDR1 [1] and at DDR2 was < 25 nM throughout. Besides, on DDR1 [2], the IC50 lay within 25 to 50 nM.

Take `O=C(Nc1cc(F)cc(C(F)(F)F)c1)c1ccc2c(c1)N(Cc1ccc3[nH]cnc3c1)CC2` [Example 62, 1-((1H-benzo[d]imidazol-5-yl)methyl)-N-(3-fluoro-5-(trifluoromethyl)phenyl)indoline-6-carboxamide]: the Ki lay within 25 to 50 nM at DDR1 [1] and 50 to 80 nM at DDR2. The same compound gave an IC50 against DDR1 [2] of 50 to 80 nM.

Turning to `Cc1n[nH]c2ncc(CN3CCc4ccc(C(=O)Nc5cc(C(C)(C)C)on5)cc43)cc12` [Example 67, N-(5-(tert-butyl)isoxazol-3-yl)-1-((3-methyl-1H-pyrazolo[3,4-b]pyridin-5-yl)methyl)indoline-6-carboxamide], the Ki on DDR1 [1] and on DDR2 was < 25 nM each time. Moreover, on DDR1 [2], the IC50 is < 25 nM.
